Values joined by “and” are separate entries in the source; they are usually repeats but may differ in a detail not shown here. Identical values can stand only once.
Columns and labels:
S. furcifera adults = test: Y-tube olfactometer behavioral trials; format: in vivo, Sogatella furcifera; settings: odorant 50 µL/L vs hexane; adults
Summary of the method: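 Single S. furcifera adults (2 days post-emergence, starved 0.5 h) chose between odorant (100 µL of 50 µL/L on filter paper) and hexane control in a glass Y-tube, charcoal-filtered humidified air 300 mL/min per arm, 25 ± 1 °C, 50% RH. Choice scored if insect passed half an arm and stayed >1 min within 10 min; 45 insects per compound, chi-squared test.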

SfurOBP3 = SfurOBP3 (Sogatella furcifera, UniProt V5T818); test: biochemical; format: binding; settings: for Fluorescence competitive binding assay, fluorescence intensity: OBP3, three replicate columns
Sequence of SfurOBP3 (V5T818 entry or part of it): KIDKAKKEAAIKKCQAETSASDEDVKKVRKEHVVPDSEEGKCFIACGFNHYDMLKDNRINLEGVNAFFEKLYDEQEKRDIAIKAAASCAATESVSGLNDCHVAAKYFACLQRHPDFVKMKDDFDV
Summary of the method: (§1)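 Protein 2.0 µM + 1-NPN 2.0 µM, 50 mM Tris-HCl pH 7.4; competitor odorants 2, 4 … 20 µM final; read 2 min post-addition, ex 337/em 390–490 nm; n=3. K1-NPN from 1-NPN titration/Scatchard; Ki from IC50 corrected for free 1-NPN.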

SfurOBP1 = SfurOBP1 (Sogatella furcifera, UniProt V5T8N5); test: biochemical; format: binding; settings: for Fluorescence competitive binding assay, fluorescence intensity: OBP1, three replicate columns
Sequence of SfurOBP1 (V5T8N5 entry or part of it): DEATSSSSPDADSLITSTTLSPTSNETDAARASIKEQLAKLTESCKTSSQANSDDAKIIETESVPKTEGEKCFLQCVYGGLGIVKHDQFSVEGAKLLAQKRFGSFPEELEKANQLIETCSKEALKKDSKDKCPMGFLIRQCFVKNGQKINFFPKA
Summary of the method: as §1

SfurOBP2 = SfurOBP2 (Sogatella furcifera, UniProt V5T759); test: biochemical; format: binding
Sequence of SfurOBP2 (V5T759 entry or part of it): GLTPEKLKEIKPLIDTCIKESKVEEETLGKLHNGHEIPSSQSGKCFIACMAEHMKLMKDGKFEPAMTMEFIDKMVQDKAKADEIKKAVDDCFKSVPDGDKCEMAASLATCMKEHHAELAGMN
Summary of the method: as §1

SfurOBP11 = SfurOBP11 (Sogatella furcifera, UniProt V5T6E3); test: biochemical; format: binding
Sequence of SfurOBP11 (V5T6E3 entry or part of it): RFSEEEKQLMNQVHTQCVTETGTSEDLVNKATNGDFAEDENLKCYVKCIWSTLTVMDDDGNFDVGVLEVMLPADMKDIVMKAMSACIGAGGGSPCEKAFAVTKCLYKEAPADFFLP
Summary of the method: as §1

SMILES: C=C1CC/C=C(\C)CC[C@@H]2[C@@H]1CC2(C)C [β-caryophyllene]
- number of insects choosing hexane arm (S. furcifera adults): 15
- number of insects choosing volatilies arm (S. furcifera adults): 16
- number of insects failed (no choice) (S. furcifera adults): 9
- IC50 (SfurOBP3): > 20 µM
- Fluorescence competitive binding assay, fluorescence intensity (SfurOBP3; ligand concentration 2): 59910 and 62614 and 72673
- Fluorescence competitive binding assay, fluorescence intensity (SfurOBP3; ligand concentration 4): 64089 and 65130 and 67441
- Fluorescence competitive binding assay, fluorescence intensity (SfurOBP3; ligand concentration 6): 62365 and 65722 and 64412
- Fluorescence competitive binding assay, fluorescence intensity (SfurOBP3; ligand concentration 8): 61822 and 63261 and 63413
- Fluorescence competitive binding assay, fluorescence intensity (SfurOBP3; ligand concentration 10): 59908 and 63429 and 67892
- Fluorescence competitive binding assay, fluorescence intensity (SfurOBP3; ligand concentration 12): 56993 and 56771 and 64941
- Fluorescence competitive binding assay, fluorescence intensity (SfurOBP3; ligand concentration 14): 61557 and 60060 and 62301
- Fluorescence competitive binding assay, fluorescence intensity (SfurOBP3; ligand concentration 16): 39308 and 53990 and 51354
- Fluorescence competitive binding assay, fluorescence intensity (SfurOBP3; ligand concentration 18): 76113 and 82456 and 70640
- Fluorescence competitive binding assay, fluorescence intensity (SfurOBP3; ligand concentration 20): 72444 and 66812 and 61866
- IC50 (SfurOBP1): > 20 µM
- Fluorescence competitive binding assay, fluorescence intensity (SfurOBP1; ligand concentration 2 (μM)): 5117 and 5425 and 5286
- Fluorescence competitive binding assay, fluorescence intensity (SfurOBP1; ligand concentration 4 (μM)): 6363 and 5644 and 6004
- Fluorescence competitive binding assay, fluorescence intensity (SfurOBP1; ligand concentration 6 (μM)): 6522 and 6380 and 7207
- Fluorescence competitive binding assay, fluorescence intensity (SfurOBP1; ligand concentration 8 (μM)): 6475 and 7284 and 8411
- Fluorescence competitive binding assay, fluorescence intensity (SfurOBP1; ligand concentration 10 (μM)): 6788 and 8986 and 9051
- Fluorescence competitive binding assay, fluorescence intensity (SfurOBP1; ligand concentration 12 (μM)): 7963 and 9385 and 12364
- Fluorescence competitive binding assay, fluorescence intensity (SfurOBP1; ligand concentration 14 (μM)): 10459 and 9678 and 17343
- Fluorescence competitive binding assay, fluorescence intensity (SfurOBP1; ligand concentration 16 (μM)): 9671 and 11754 and 9907
- Fluorescence competitive binding assay, fluorescence intensity (SfurOBP1; ligand concentration 18 (μM)): 16605 and 15288 and 16195
- Fluorescence competitive binding assay, fluorescence intensity (SfurOBP1; ligand concentration 20 (μM)): 15809 and 13061 and 12977
- IC50 (SfurOBP2): 2.93 µM
- Fluorescence competitive binding assay, OBP2 (raw fluorescence reading) (SfurOBP2; ligand concentration 2 (unit not given), replicate column 1 of 3): 11458
- Fluorescence competitive binding assay, OBP2 (raw fluorescence reading) (SfurOBP2; ligand concentration 2 (unit not given), replicate column 2 of 3): 11327
- Fluorescence competitive binding assay, OBP2 (raw fluorescence reading) (SfurOBP2; ligand concentration 2 (unit not given), replicate column 3 of 3): 11281
- Fluorescence competitive binding assay, OBP2 (raw fluorescence reading) (SfurOBP2; ligand concentration 4 (unit not given), replicate column 1 of 3): 12040
- Fluorescence competitive binding assay, OBP2 (raw fluorescence reading) (SfurOBP2; ligand concentration 4 (unit not given), replicate column 2 of 3): 12315
- Fluorescence competitive binding assay, OBP2 (raw fluorescence reading) (SfurOBP2; ligand concentration 4 (unit not given), replicate column 3 of 3): 12582
- Fluorescence competitive binding assay, OBP2 (raw fluorescence reading) (SfurOBP2; ligand concentration 6 (unit not given), replicate column 1 of 3): 13825
- Fluorescence competitive binding assay, OBP2 (raw fluorescence reading) (SfurOBP2; ligand concentration 6 (unit not given), replicate column 2 of 3): 12794
- Fluorescence competitive binding assay, OBP2 (raw fluorescence reading) (SfurOBP2; ligand concentration 6 (unit not given), replicate column 3 of 3): 13738
- Fluorescence competitive binding assay, OBP2 (raw fluorescence reading) (SfurOBP2; ligand concentration 8 (unit not given), replicate column 1 of 3): 13150
- Fluorescence competitive binding assay, OBP2 (raw fluorescence reading) (SfurOBP2; ligand concentration 8 (unit not given), replicate column 2 of 3): 13647
- Fluorescence competitive binding assay, OBP2 (raw fluorescence reading) (SfurOBP2; ligand concentration 8 (unit not given), replicate column 3 of 3): 14723
- Fluorescence competitive binding assay, OBP2 (raw fluorescence reading) (SfurOBP2; ligand concentration 10 (unit not given), replicate column 1 of 3): 16274
- Fluorescence competitive binding assay, OBP2 (raw fluorescence reading) (SfurOBP2; ligand concentration 10 (unit not given), replicate column 2 of 3): 13413
- Fluorescence competitive binding assay, OBP2 (raw fluorescence reading) (SfurOBP2; ligand concentration 10 (unit not given), replicate column 3 of 3): 15514
- Fluorescence competitive binding assay, OBP2 (raw fluorescence reading) (SfurOBP2; ligand concentration 12 (unit not given), replicate column 1 of 3): 16497
- Fluorescence competitive binding assay, OBP2 (raw fluorescence reading) (SfurOBP2; ligand concentration 12 (unit not given), replicate column 2 of 3): 15342
- Fluorescence competitive binding assay, OBP2 (raw fluorescence reading) (SfurOBP2; ligand concentration 12 (unit not given), replicate column 3 of 3): 16204
- Fluorescence competitive binding assay, OBP2 (raw fluorescence reading) (SfurOBP2; ligand concentration 14 (unit not given), replicate column 1 of 3): 16950
- Fluorescence competitive binding assay, OBP2 (raw fluorescence reading) (SfurOBP2; ligand concentration 14 (unit not given), replicate column 2 of 3): 15785
- Fluorescence competitive binding assay, OBP2 (raw fluorescence reading) (SfurOBP2; ligand concentration 14 (unit not given), replicate column 3 of 3): 16267
- Fluorescence competitive binding assay, OBP2 (raw fluorescence reading) (SfurOBP2; ligand concentration 16 (unit not given), replicate column 1 of 3): 16569
- Fluorescence competitive binding assay, OBP2 (raw fluorescence reading) (SfurOBP2; ligand concentration 16 (unit not given), replicate column 2 of 3): 16590
- Fluorescence competitive binding assay, OBP2 (raw fluorescence reading) (SfurOBP2; ligand concentration 16 (unit not given), replicate column 3 of 3): 16267
- Fluorescence competitive binding assay, OBP2 (raw fluorescence reading) (SfurOBP2; ligand concentration 18 (unit not given), replicate column 1 of 3): 20111
- Fluorescence competitive binding assay, OBP2 (raw fluorescence reading) (SfurOBP2; ligand concentration 18 (unit not given), replicate column 2 of 3): 21295
- Fluorescence competitive binding assay, OBP2 (raw fluorescence reading) (SfurOBP2; ligand concentration 18 (unit not given), replicate column 3 of 3): 20566
- Fluorescence competitive binding assay, OBP2 (raw fluorescence reading) (SfurOBP2; ligand concentration 20 (unit not given), replicate column 1 of 3): 21451
- Fluorescence competitive binding assay, OBP2 (raw fluorescence reading) (SfurOBP2; ligand concentration 20 (unit not given), replicate column 2 of 3): 21222
- Fluorescence competitive binding assay, OBP2 (raw fluorescence reading) (SfurOBP2; ligand concentration 20 (unit not given), replicate column 3 of 3): 20042
- IC50 (SfurOBP11): > 20 µM
- Fluorescence intensity, fluorescence competitive binding assay, OBP11 (SfurOBP11; ligand concentration 2, replicate 1): 23970
- Fluorescence intensity, fluorescence competitive binding assay, OBP11 (SfurOBP11; ligand concentration 2, replicate 2): 23335
- Fluorescence intensity, fluorescence competitive binding assay, OBP11 (SfurOBP11; ligand concentration 2, replicate 3): 21938
- Fluorescence intensity, fluorescence competitive binding assay, OBP11 (SfurOBP11; ligand concentration 4, replicate 1): 23122
- Fluorescence intensity, fluorescence competitive binding assay, OBP11 (SfurOBP11; ligand concentration 4, replicate 2): 24566
- Fluorescence intensity, fluorescence competitive binding assay, OBP11 (SfurOBP11; ligand concentration 4, replicate 3): 25482
- Fluorescence intensity, fluorescence competitive binding assay, OBP11 (SfurOBP11; ligand concentration 6, replicate 1): 23526
- Fluorescence intensity, fluorescence competitive binding assay, OBP11 (SfurOBP11; ligand concentration 6, replicate 2): 25770
- Fluorescence intensity, fluorescence competitive binding assay, OBP11 (SfurOBP11; ligand concentration 6, replicate 3): 26267
- Fluorescence intensity, fluorescence competitive binding assay, OBP11 (SfurOBP11; ligand concentration 8, replicate 1): 21931
- Fluorescence intensity, fluorescence competitive binding assay, OBP11 (SfurOBP11; ligand concentration 8, replicate 2): 24474
- Fluorescence intensity, fluorescence competitive binding assay, OBP11 (SfurOBP11; ligand concentration 8, replicate 3): 27203
- Fluorescence intensity, fluorescence competitive binding assay, OBP11 (SfurOBP11; ligand concentration 10, replicate 1): 23853
- Fluorescence intensity, fluorescence competitive binding assay, OBP11 (SfurOBP11; ligand concentration 10, replicate 2): 25460
- Fluorescence intensity, fluorescence competitive binding assay, OBP11 (SfurOBP11; ligand concentration 10, replicate 3): 25443
- Fluorescence intensity, fluorescence competitive binding assay, OBP11 (SfurOBP11; ligand concentration 12, replicate 1): 23639
- Fluorescence intensity, fluorescence competitive binding assay, OBP11 (SfurOBP11; ligand concentration 12, replicate 2): 23490
- Fluorescence intensity, fluorescence competitive binding assay, OBP11 (SfurOBP11; ligand concentration 12, replicate 3): 23358
- Fluorescence intensity, fluorescence competitive binding assay, OBP11 (SfurOBP11; ligand concentration 14, replicate 1): 23808
- Fluorescence intensity, fluorescence competitive binding assay, OBP11 (SfurOBP11; ligand concentration 14, replicate 2): 26534
- Fluorescence intensity, fluorescence competitive binding assay, OBP11 (SfurOBP11; ligand concentration 14, replicate 3): 25924
- Fluorescence intensity, fluorescence competitive binding assay, OBP11 (SfurOBP11; ligand concentration 16, replicate 1): 22662
- Fluorescence intensity, fluorescence competitive binding assay, OBP11 (SfurOBP11; ligand concentration 16, replicate 2): 23024
- Fluorescence intensity, fluorescence competitive binding assay, OBP11 (SfurOBP11; ligand concentration 16, replicate 3): 23415
- Fluorescence intensity, fluorescence competitive binding assay, OBP11 (SfurOBP11; ligand concentration 18, replicate 1): 30250
- Fluorescence intensity, fluorescence competitive binding assay, OBP11 (SfurOBP11; ligand concentration 18, replicate 2): 30294
- Fluorescence intensity, fluorescence competitive binding assay, OBP11 (SfurOBP11; ligand concentration 18, replicate 3): 30235
- Fluorescence intensity, fluorescence competitive binding assay, OBP11 (SfurOBP11; ligand concentration 20, replicate 1): 30296
- Fluorescence intensity, fluorescence competitive binding assay, OBP11 (SfurOBP11; ligand concentration 20, replicate 2): 30444
- Fluorescence intensity, fluorescence competitive binding assay, OBP11 (SfurOBP11; ligand concentration 20, replicate 3): 30224

Source: article PMC6409085, “Three odorant-binding proteins are involved in the behavioral response of Sogatella furcifera to rice plant volatiles” (PeerJ, 2019)
